From patent US5358950A, “Triazolopyrimidine derivatives which are angiotensin II receptor antagonists” (Laboratoires UPSA, priority 1991, dated 1994)

Test system: adrenal angiotensin II receptors
Test: Displacement of radiolabelled ligand [^125 I]-SIAII specifically bound to rat adrenal angiotensin II receptors
Type: binding
Conditions: rat adrenal homogenate, 60 min at 25° C.
Method: The affinity of the products of the examples for angiotensin II receptors is assessed by a technique of displacement of a radiolabelled ligand specifically bound to the adrenal angiotensin II receptors in the rat.
An aliquot of a rat adrenal homogenate is incubated in the presence of a single concentration of [^125 I]-SIAII(Sar^1 Tyr^4, Ile^8 -angiotensin II) which is an angiotensin II receptor antagonist, and two concentrations of competitive agents ([…]) for 60 min at 25° C.
The reaction is stopped by adding buffer, followed by rapid filtration through glass-paper filters. The non-specific binding is determined in the presence of angiotensin II.
The results are expressed, for the concentrations tested, as a percentage displacement of the radiolabelled ligand specifically bound to the adrenal angiotensin II receptors.

| % displacement of the labelled ligand (1E-5M, 10 µM) [%] | % displacement of the labelled ligand (1E-7M, 0.1 µM) [%] | Structure (SMILES) |
| --- | --- | --- |
| 66 | 48 | CCCc1nc(C)n2c(=O)[nH]nc2c1Cc1ccc(-c2ccccc2-c2nnn[nH]2)cc1 [Example 19, 7-n-Propyl-5-methyl-8-{[2'-(5-tetrazolyl)-4-biphenylyl]methyl}-1,2,4-triazolo[4,3-c]pyrimidin-3(2H)-one] |
| 60 | 45 | CCCc1nc(C)n2[nH]c(=O)nc2c1Cc1ccc(-c2ccccc2-c2nnn[nH]2)cc1 [Example 20, 7-n-Propyl-5-methyl-8-{[2'-(5-tetrazolyl)-4-biphenylyl]methyl}-1,2,4-triazolo[1,5-c]pyrimidin-2(3H)-one] |
| 68 | 54 | CCCc1nc(C)n2c(=O)n(CCO)nc2c1Cc1ccc(-c2ccccc2-c2nnn[nH]2)cc1 [Example 25, 2-[7-n-Propyl-5-methyl-3-oxo-8-{[2'-(5-tetrazolyl)-4-biphenylyl]methyl}-2,3-dihydro-1,2,4-triazolo[4,3-c]pyrimidin-2-yl]ethanol] |
| 65 | 43 | CCCCc1nc(C)n2c(=O)[nH]nc2c1Cc1ccc(-c2ccccc2-c2nnn[nH]2)cc1 [Example 36, 7-n-Butyl-5-methyl-8-{[2'-(5-tetrazolyl)-4-biphenylyl]methyl}-1,2,4-triazolo[4,3-c]pyrimidin-3(2H)-one] |
| 67 | 33 | CCCc1nc(C)n2c(S)nnc2c1Cc1ccc(-c2ccccc2-c2nnn[nH]2)cc1 [Example 68, 7-n-Propyl-5-methyl-3-mercapto-8-{[2'-(5-tetrazolyl)-4-biphenylyl]methyl}-1,2,4-triazolo[4,3-c]pyrimidine] |
| 60 | 38 | CCc1nc(C)n2[nH]c(=O)nc2c1Cc1ccc(-c2ccccc2-c2nnn[nH]2)cc1 [Example 97, 7-Ethyl-5-methyl-8-{[2'(5-tetrazolyl)-4-biphenylyl]methyl}-1,2,4-triazolo[1,5-c]pyrimidin-2(3H)-one] |
| 71 | 58 | CCCc1nc(C)n2nc(N)nc2c1Cc1ccc(-c2ccccc2-c2nnn[nH]2)cc1 [Example 107, 7-n-Propyl-5-methyl-2-amino-8-{[2'-(5-tetrazolyl)-4-biphenylyl]methyl}-1,2,4-triazolo[1,5-c]pyrimidine] |
| 60 | 41 | CCCCc1nc(C)n2[nH]c(=O)nc2c1Cc1ccc(-c2ccccc2-c2nnn[nH]2)cc1 [Example 112, 7-n-Butyl-5-methyl-8-{[2'(5-tetrazolyl)-4-biphenylyl]methyl}-1,2,4-triazolo[1,5-c]pyrimidin-2(3H)-one] |

The next lines start with the compound.

| Structure (SMILES) | % displacement of the labelled ligand (1E-5M, 10 µM) [%] | % displacement of the labelled ligand (1E-7M, 0.1 µM) [%] |
| --- | --- | --- |
| CCCc1nc(C)n2nc(S)nc2c1Cc1ccc(-c2ccccc2-c2nnn[nH]2)cc1 [Example 42, 7-n-propyl-5-methyl-2-mercapto-8-{[2'-(5-tetrazolyl)-4-biphenylyl]methyl}-1,2,4-triazolo[1,5-c]pyrimidine] | 75 | 46 |
| CCCc1nc(C)n2ncnc2c1Cc1ccc(-c2ccccc2-c2nnn[nH]2)cc1 [Example 71, 7-n-propyl-5-methyl-8-{[2'-(5-tetrazolyl)-4-biphenylyl]methyl}-1,2,4-triazolo[1,5-c]pyrimidine] | 73 | 60 |
| CCCc1nc(C)n2nc(C)nc2c1Cc1ccc(-c2ccccc2-c2nnn[nH]2)cc1 [Example 74, 7-n-Propyl-2,5-dimethyl-8-{[2'-(5-tetrazolyl)-4-biphenylyl}methyl]-1,2,4-triazolo[1,5-c]pyrimidine] | 69 | 54 |
| CCCc1nc(C)n2nc(CC)nc2c1Cc1ccc(-c2ccccc2-c2nnn[nH]2)cc1 [Example 78, 7-n-Propyl-5-methyl-8-{[2 '(5-tetrazolyl)-4-biphenylyl]methyl}-2-ethyl-1,2,4-triazolo[1,5-c]pyrimidine] | 67 | 52 |
| CCCc1nc(C)n2nc(NC)nc2c1Cc1ccc(-c2ccccc2-c2nnn[nH]2)cc1 [Example 80, 7-n-Propyl-5-methyl-2-methylamino-8-{[2'-(5-tetrazolyl)-4-biphenylyl]methyl}-1,2,4-triazolo [1,5-c]pyrimidine] | 74 | 59 |
| CCc1nc(C)n2nc(C)nc2c1Cc1ccc(-c2ccccc2-c2nn[nH]n2)cc1 [Example 90, 7-Ethyl-2 , 5-dimethyl-8-{[2 '-(5-tetrazolyl)-4-biphenylyl]methyl}-i, 2,4-triazolo[1,5-c]pyrimidine] | 63 | 48 |
| CCCc1nc(C)n2nc(C(=O)OCC)nc2c1Cc1ccc(-c2ccccc2-c2nnn[nH]2)cc1 [Example 109, Ethyl 7-n-propyl-5-methyl-8-{[2'-(5-tetrazolyl)-4-biphenylyl]methyl}-1,2,4-triazolo[1,5-c]pyrimidine-2-carboxylate] | 67 | 46 |
| CCCc1nc(CC)n2[nH]c(=O)nc2c1Cc1ccc(-c2ccccc2-c2nnn[nH]2)cc1 [Example 138, 7-n-Propyl-5-ethyl-8-{[2'-(5-tetrazolyl)-4-biphenylyl]methyl}-1,2,4-triazolo[1,5-c]pyrimidin-2(3H)-one] | 61 | 17 |
| CCCc1nc(C)n2nc(CC(=O)OCC)nc2c1Cc1ccc(-c2ccccc2-c2nnn[nH]2)cc1 [Example 146, Ethyl [7-n-propyl-5-methyl-8-{[2'-(5-tetrazolyl)-4-biphenylyl]methyl}-1,2,4-triazolo[1,5-c]pyrimidin-2-yl]acetate] | 74 | 56 |
| CCCc1nc(C)n2nc(COC)nc2c1Cc1ccc(-c2ccccc2-c2nnn[nH]2)cc1 [Example 152, 7-n-Propyl-5-methyl-2-methoxymethyl-8-{[2'-(5-tetrazolyl)-4-biphenylyl]methyl}-1,2,4-triazolo[1,5-c]pyrimidine] | 69 | 57 |
